Results taken from patent publication US20240287138A1, “CYCLIC PEPTIDES FOR INHIBITING TNF RECEPTOR 1 ACTIVITY” (Merck Sharp & Dohme LLC, priority 2023, published 2024).
Numbered stars: 1 amine (or outer) side, 2 acyl side, 3 side chain; on linkers, the order of the positions; unused ones are H or OH. Bridge positions count the residues as written; N and C are the ends. Square brackets hold non-standard residues; d marks the D form. Peptide text beside a SMILES is read from it. * marks the point of attachment. Trp(βS-Me,7-OMe) = COc1cccc2c([C@H](C)[C@H](N)C(=O)O)c[nH]c12; X17 = Cc1[nH]c2ccccc2c1[C@H](C)[C@H](N[*:1])C(=O)[*:2]; Trp(7-Cl) = N[C@@H](Cc1c[nH]c2c(Cl)cccc12)C(=O)O; Ala(pyrimidin-5-yl) = N[C@@H](Cc1cncnc1)C(=O)O; Phe(4-CONH2) = NC(=O)c1ccc(C[C@H](N)C(=O)O)cc1; Phe(4-COOH) = N[C@@H](Cc1ccc(C(=O)O)cc1)C(=O)O; Trp(7-aza) = N[C@@H](Cc1c[nH]c2ncccc12)C(=O)O; Pip(5R-OH) = O=C(O)[C@@H]1CC[C@@H](O)CN1; X1 = O=C([C@@H]1CC[C@H](N[*:1])C1)[*:2]; Pip(4-aza) = O=C(O)[C@@H]1CNCCN1; 4Pal = N[C@@H](Cc1ccncc1)C(=O)O; NMeE = CN[C@@H](CCC(=O)O)C(=O)O; dHyp = O=C(O)[C@H]1C[C@H](O)CN1; NMehSer = CN[C@@H](CCO)C(=O)O; αMeS = C[C@](N)(CO)C(=O)O; Carboxymethyl = O=C(O)C*; Nle = CCCC[C@H](N)C(=O)O; Sar = CNCC(=O)O

Tests used:
human TNFR2 ECD protein = biological target: T1, human TNFR2 ECD protein (Homo sapiens, UniProt P20333); assay: SPR off-target binding (selectivity) to human TNFR2 ECD
T1 construct: HRV 3C protease cleavage site (C); 6His (C, cleaved yes); made in house; host or cells: Sf21 insect cells (baculovirus), secreted
T1 sequence (P20333 23-257): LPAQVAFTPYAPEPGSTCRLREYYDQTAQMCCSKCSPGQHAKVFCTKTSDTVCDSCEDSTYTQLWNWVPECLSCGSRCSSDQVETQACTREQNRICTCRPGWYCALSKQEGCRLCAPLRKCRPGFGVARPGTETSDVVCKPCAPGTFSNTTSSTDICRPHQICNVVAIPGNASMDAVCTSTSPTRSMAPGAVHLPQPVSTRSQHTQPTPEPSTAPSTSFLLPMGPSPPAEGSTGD
In short: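 Biotinylated avi-tagged human TNFR1 or TNFR2 ECD, expressed in Sf21 insect cells, captured on streptavidin SPR chip; peptide analytes run in 10 mM HEPES pH 7.4, 150 mM NaCl, 3 mM EDTA, 0.05% P20, 2% DMSO. kon and koff measured, affinity KA calculated.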

[1] = biological target: T2, TNFα-induced NF-κB signal transduction pathway (TNFR1 signaling) in THP-1 cells (Homo sapiens, UniProt P19438); assay: THP-1 Lucia NF-κB reporter cell assay, inhibition of TNFα-induced NF-κB signaling; assay type: cell-based; conditions: THP-1 NF-κB Lucia reporter cells, 10 ng/mL TNFα, 16-18 h, secreted luciferase; read-out: THP-1 IC50
T2 sequence (P19438 30-455): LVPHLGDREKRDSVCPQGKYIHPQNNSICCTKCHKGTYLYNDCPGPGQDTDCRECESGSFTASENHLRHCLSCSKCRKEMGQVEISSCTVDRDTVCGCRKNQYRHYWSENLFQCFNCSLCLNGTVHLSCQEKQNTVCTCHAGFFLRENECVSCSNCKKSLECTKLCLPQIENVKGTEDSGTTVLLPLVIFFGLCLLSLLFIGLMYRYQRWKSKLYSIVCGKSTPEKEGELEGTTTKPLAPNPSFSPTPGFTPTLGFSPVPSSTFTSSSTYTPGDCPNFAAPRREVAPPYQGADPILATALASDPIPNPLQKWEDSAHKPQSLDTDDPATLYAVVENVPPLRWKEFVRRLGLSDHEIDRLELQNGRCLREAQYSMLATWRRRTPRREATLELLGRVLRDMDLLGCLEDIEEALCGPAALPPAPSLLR
In short: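 Macrocyclic peptides were preincubated 1 h at 37 °C with THP-1 NF-κB-Lucia reporter cells (20,000 cells/well) in antibiotic-free RPMI 1640/10% FBS, then stimulated with 10 ng/mL human TNFα overnight (16-18 h). Secreted luciferase in supernatant was read by luminescence; IC50 from 4-parameter logistic fits.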

[2] = biological target: T3, human TNFR1 extracellular domain (ECD) protein (Homo sapiens, UniProt P19438); assay: SPR binding affinity to captured human TNFR1 ECD
T3 construct: HRV 3C protease cleavage site (C); 6His (C, cleaved yes); made in house; host or cells: Sf21 insect cells (baculovirus), secreted
T3 sequence (P19438 30-211): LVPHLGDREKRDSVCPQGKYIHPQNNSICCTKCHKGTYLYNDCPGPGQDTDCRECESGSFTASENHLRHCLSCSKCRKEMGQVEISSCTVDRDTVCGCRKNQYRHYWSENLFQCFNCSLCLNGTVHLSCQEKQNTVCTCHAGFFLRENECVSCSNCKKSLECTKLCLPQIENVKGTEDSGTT
Description: B. Procedure for Binding Affinity and Selectivity measured by SPR
Affinity and selectivity for hTNFR1 and TNFR2 was determined using SPR. Human TNFR1 or TNFR2 genes (extracellular domain only) were synthesized with a C-terminal Avi-tag, HRV 3C protease cleavage site followed by a 6His-tag for affinity purification. The final gene product was cloned into pBAC™-1 vector (Millipore Sigma) for expression testing in insect cells. Constructs were transfected into Sf21 cells for baculovirus generation followed by protein expression analysis in Sf21 and Tni cell lines. Large scale expression in Sf21 cells was performed using baculovirus infected insect cells (BIICs) infected at a MOI=2.0 grown for 72 h. Target proteins secreted into the media were harvested via centrifugation and concentrated using diafiltration. TNFR was purified by immobilized metal ion affinity chromatography (IMAC) using a Ni-Sepharose HisTrap™ column (Cytiva™). Isolated TNFR had His tag removed using HRV 3C protease followed by additional purification using Ni-NTA chromatography. Biotinylation was performed on Ni-NTA flow-through fractions concentrated to 45 μM and treated with BirA ligase (1:100, μg/μg ratio) in 50 mM Tris pH 7.5, 150 mM NaCl, 50 μM biotin, 10 mM magnesium acetate, 10 mM ATP at 4° C. for 20 h. Final purification of biotin-TNFR and buffer exchange into 20 mM HEPES pH 7.5, 150 mM NaCl was performed using a HiLoad® Superdex® 200 26/60 column (Cytiva™). Highly purified protein was aliquoted and stored at −80° C.
The SPR assay uses a Cytiva™ 8K or 8K+ biosensor instrument to measure the kinetics of peptide analytes binding to captured human TNFR1 extracellular domain (ECD) protein; peptide analytes are also evaluated for any off-target binding to human TNFR2 ECD protein in parallel. Recombinant human TNFR1 ECD and human TNFR2 ECD proteins, biotinylated via engineered C-terminal avi-tags, are immobilized to a regenerable streptavidin biosensor chip surface (Cytiva™ Biotin CAPture kit, Series S; cat. #28920234). Peptide analytes binding to immobilized human TNFR1 ECD protein and their subsequent dissociation are conducted in a buffer of 10 mM HEPES pH 7.4, 150 mM NaCl, 3 mM EDTA, 0.05% P20,2% DMSO under laminar flow conditions and measured in response units (RU), which are directly proportional to the accumulated mass on the surface of the biosensor chip; the biosensor chip surface is regenerated via Cytiva™ proprietary methods between the evaluation of each peptide analyte. […] The SPR assay determines the association and dissociation rate constants, kon and koff, for each peptide analyte and, from these values, calculates the binding affinity, […] reported in Table 2.

How did the Kd (human TNFR2 ECD protein) turn out when `CCCC[C@@H]1NC(=O)[C@@H]2CC[C@@H](C2)NC(=O)[C@H]([C@@H](C)c2c[nH]c3c(OC)cccc23)NC(=O)CN(C)C(=O)[C@H](Cc2ccc(O)cc2)NC(=O)[C@H](Cc2ccc(C(N)=O)cc2)NC(=O)[C@](C)(CO)NC(=O)[C@H](Cc2c[nH]c3c(Cl)cccc23)NC(=O)[C@H](Cc2ccc(C(=O)O)cc2)NC(=O)[C@H](CC(N)=O)NC(=O)[C@H]2C[C@H](OCC(=O)O)CN2C(=O)[C@H](Cc2c[nH]c3ccccc23)NC(=O)[C@@H]2CNCCN2C(=O)[C@H](Cc2ccncc2)NC1=O` [SEQ ID NO. 95] (cyclo([4Pal][Pip(4-aza)]W[dHyp](Carboxymethyl)N[Phe(4-COOH)][Trp(7-Cl)][αMeS][Phe(4-CONH2)]Y[Sar][Trp(βS-Me,7-OMe)][X1][Nle])) was run?
Its Kd is greater than 1000 nM.

What about the IC50 [1] of the same molecule?
The IC50 was 0.7 nM.

What about the Kd [2] of the same molecule?
The Kd was 0.2 nM.

`CCCC[C@@H]1NC(=O)CSC[C@@H](C(N)=O)NC(=O)[C@H]([C@@H](C)c2c(C)[nH]c3ccccc23)NC(=O)CN(C)C(=O)[C@H](Cc2ccc(O)cc2)NC(=O)[C@H](Cc2ccc(C(N)=O)cc2)NC(=O)[C@](C)(CO)NC(=O)[C@H](Cc2c[nH]c3c(Cl)cccc23)NC(=O)[C@H](Cc2ccncc2)NC(=O)[C@H](CC(N)=O)NC(=O)[C@H](CCC(=O)O)N(C)C(=O)[C@H](Cc2c[nH]c3ccccc23)NC(=O)[C@@H]2CC[C@@H](O)CN2C(=O)[C@H](Cc2ccncc2)NC1=O` [SEQ ID NO. 97] ({CH2CO}-[Nle][4Pal][Pip(5R-OH)]W[NMeE]N[4Pal][Trp(7-Cl)][αMeS][Phe(4-CONH2)]Y[Sar][X17]C-NH2; thioether N-14) was tested. Which Kd (human TNFR2 ECD protein) did it give?
Its Kd is greater than 1000 nM.

What about the IC50 [1] of the same molecule?
The IC50 was 0.9 nM.

What about the Kd [2] of the same molecule?
Its Kd is 0.08 nM.

Which Kd (human TNFR2 ECD protein) does the source give for `CCCC[C@@H]1NC(=O)CSC[C@@H](C(N)=O)NC(=O)[C@H]([C@@H](C)c2c[nH]c3c(OC)cccc23)NC(=O)CN(C)C(=O)[C@H](Cc2ccc(O)cc2)NC(=O)[C@H](Cc2ccc(C(=O)O)cc2)NC(=O)[C@](C)(CO)NC(=O)[C@H](Cc2c[nH]c3c(Cl)cccc23)NC(=O)[C@H](Cc2ccncc2)NC(=O)[C@H](CC(N)=O)NC(=O)[C@H](CCC(=O)O)N(C)C(=O)[C@H](Cc2c[nH]c3ncccc23)NC(=O)[C@H](CCOC)N(C)C(=O)[C@H](Cc2ccncc2)NC1=O` [SEQ ID NO. 99] ({CH2CO}-[Nle][4Pal][NMehSer](Me)[Trp(7-aza)][NMeE]N[4Pal][Trp(7-Cl)][αMeS][Phe(4-COOH)]Y[Sar][Trp(βS-Me,7-OMe)]C-NH2; thioether N-14) here?
The Kd was greater than 1000 nM.

What about the IC50 [1] of the same molecule?
The IC50 was 3.7 nM.

And the Kd [2]?
Its Kd is 0.15 nM.

Which results are given for `CCCC[C@@H]1NC(=O)[C@@H]2CC[C@@H](C2)NC(=O)[C@H]([C@@H](C)c2c[nH]c3c(OC)cccc23)NC(=O)CN(C)C(=O)[C@H](Cc2ccc(O)cc2)NC(=O)[C@H](Cc2ccc(C(N)=O)cc2)NC(=O)[C@](C)(CO)NC(=O)[C@H](Cc2c[nH]c3c(Cl)cccc23)NC(=O)[C@H](Cc2cncnc2)NC(=O)[C@H](CC(N)=O)NC(=O)[C@H](CCC(=O)O)N(C)C(=O)[C@H](Cc2c[nH]c3ccccc23)NC(=O)[C@@H]2CC[C@@H](O)CN2C(=O)[C@H](Cc2ccncc2)NC1=O` [SEQ ID NO. 102] (cyclo([4Pal][Pip(5R-OH)]W[NMeE]N[Ala(pyrimidin-5-yl)][Trp(7-Cl)][αMeS][Phe(4-CONH2)]Y[Sar][Trp(βS-Me,7-OMe)][X1][Nle]))?
Kd (human TNFR2 ECD protein): > 1000 nM; IC50 [1]: 0.5 nM; Kd [2]: 0.2 nM
